Active and inactive are the calls of the source. No cut-off for these calls is given here.
Assays:
[1] = test system: Mus musculus; assay: Anticonvulsant activity in Swiss albino mouse assessed as protection against maximal electroshock-induced seizures at 300 mg/kg, ip after 4 hrs; assay type: functional, organism-based; parameters: dose 300 mg/kg
[2] = test system: Mus musculus; assay: Anticonvulsant activity in Swiss albino mouse assessed as protection against maximal electroshock-induced seizures at 300 mg/kg, ip after 0.5 hrs; assay type: functional, organism-based; parameters: dose 300 mg/kg
[3] = test system: Mus musculus; assay: Anticonvulsant activity in ip dosed Swiss albino mouse assessed as protection against subcutaneous pentylenetetrazole-induced seizures after 0.5 hrs; assay type: functional; conditions: read-out: MED
[4] = test system: Mus musculus; assay: Neurotoxicity in Swiss albino mouse assessed as motor impairment at 300 mg/kg, ip after 4 hrs by rotorod test; assay type: toxicity, organism-based; parameters: dose 300 mg/kg, route intraperitoneal; conditions: in vivo
[5] = test system: Mus musculus; assay: Neurotoxicity in Swiss albino mouse assessed as motor impairment at 300 mg/kg, ip after 0.5 hrs by rotorod test; assay type: toxicity, organism-based; parameters: dose 300 mg/kg, route intraperitoneal; conditions: in vivo
[6] = test system: Mus musculus; assay: Anticonvulsant activity in ip dosed Swiss albino mouse assessed as protection against subcutaneous pentylenetetrazole-induced seizures after 4 hrs; assay type: functional; conditions: read-out: MED
[7] = test system: Rattus norvegicus; assay: Anticonvulsant activity in Wistar rat maximal electroshock-induced seizures model assessed as time spend in hind leg tonic extensor phase at 30 mg/kg, po after 1 hr relative to control; assay type: functional
[8] = test system: Rattus norvegicus; assay: Anticonvulsant activity in Wistar rat assessed as protection against maximal electroshock-induced seizures at 30 mg/kg, po after 0.25 hrs; assay type: functional
[9] = test system: Mus musculus; assay: Anticonvulsant activity in ip dosed Swiss albino mouse assessed as protection against maximal electroshock-induced seizures after 4 hrs; assay type: functional; conditions: read-out: MED
[10] = test system: Rattus norvegicus; assay: Neurotoxicity in Wistar rat assessed as motor impairment at 30 mg/kg, po by rotorod test; assay type: toxicity, organism-based; parameters: dose 30 mg/kg, route oral; conditions: in vivo
[11] = test system: Rattus norvegicus; assay: Anticonvulsant activity in Wistar rat assessed as protection against maximal electroshock-induced seizures at 30 mg/kg, po after 0.5 hrs; assay type: functional
[12] = test system: Rattus norvegicus; assay: Anticonvulsant activity in Wistar rat maximal electroshock-induced seizures model assessed as time spend in hind leg tonic extensor phase at 30 mg/kg, po after 0.5 hrs relative to control; assay type: functional
[13] = test system: Rattus norvegicus; assay: Anticonvulsant activity in Wistar rat maximal electroshock-induced seizures model assessed as time spend in hind leg tonic extensor phase at 30 mg/kg, po after 2 hrs relative to control; assay type: functional
[14] = test system: Rattus norvegicus; assay: Anticonvulsant activity in Wistar rat assessed as protection against maximal electroshock-induced seizures at 30 mg/kg, po after 4 hrs; assay type: functional
[15] = Neurotoxicity in ip dosed Swiss albino mouse assessed as maximum tolerated dose after 4 hrs by rotorod test; assay type: toxicity, organism-based; conditions: in vivo
[16] = test system: Rattus norvegicus; assay: Anticonvulsant activity in Wistar rat maximal electroshock-induced seizures model assessed as time spend in hind leg tonic extensor phase at 30 mg/kg, po after 4 hrs relative to control; assay type: functional
[17] = test system: Rattus norvegicus; assay: Anticonvulsant activity in Wistar rat maximal electroshock-induced seizures model assessed as time spend in hind leg tonic extensor phase at 30 mg/kg, po after 0.25 hrs relative to control; assay type: functional
[18] = test system: Rattus norvegicus; assay: Anticonvulsant activity in Wistar rat assessed as protection against maximal electroshock-induced seizures at 30 mg/kg, po after 1 hr; assay type: functional
[19] = test system: Mus musculus; assay: Anticonvulsant activity in ip dosed Swiss albino mouse assessed as protection against maximal electroshock-induced seizures after 0.5 hrs; assay type: functional; conditions: read-out: MED
[20] = test system: Rattus norvegicus; assay: Anticonvulsant activity in Wistar rat assessed as protection against maximal electroshock-induced seizures at 30 mg/kg, po after 2 hrs; assay type: functional
[21] = Neurotoxicity in ip dosed Swiss albino mouse assessed as maximum tolerated dose after 0.5 hrs by rotorod test; assay type: toxicity, organism-based; conditions: in vivo
[22] = test system: Mus musculus; assay: Anticonvulsant activity in Swiss albino mouse assessed as protection against subcutaneous pentylenetetrazole-induced seizures at 300 mg/kg, ip after 4 hrs; assay type: functional, organism-based; parameters: dose 300 mg/kg
[23] = test system: Mus musculus; assay: Anticonvulsant activity in Swiss albino mouse assessed as protection against subcutaneous pentylenetetrazole-induced seizures at 300 mg/kg, ip after 0.5 hrs; assay type: functional, organism-based; parameters: dose 300 mg/kg

Row | Compound | Activity [1] | minimal effective dose [3] | Activity [4] | Activity [5] | minimal effective dose [6] | Time [7] | Activity [8] | minimal effective dose [9] | Activity [10] | Activity [11] | Time [12] | Time [13] | Activity [14] | MTD at 4 h [15] | Time [16] | Time [17] | Activity [18] | minimal effective dose [19] | Activity [20] | Activity [22] | further results
1 | CCC1(C)CC(=O)NC1=O (configuration not stated) [ETHOSUXIMIDE] | inactive | 100 mg/kg | Non-toxic | Non-toxic | 300 mg/kg |  |  |  |  |  |  |  |  |  |  |  |  |  |  |  | Activity [2]: inactive
2 | Cc1nc2c(Br)cc(Br)cc2c(=O)n1-c1ccc(NC(=O)N/N=C/c2ccc(N(C)C)cc2)cc1 |  | 100 mg/kg |  |  | 300 mg/kg | 1.38 s | 25% | 30 mg/kg | Non-toxic | 75% | 2.88 s | 0 s | 100% | 300 mg/kg | 0 s | 8.38 s | 88% | 30 mg/kg | 100% |  | MTD at 0.5 h [21]: 300 mg/kg
3 | COc1cc(/C=N/NC(=O)Nc2ccc(-n3c(-c4ccccc4)nc4c(Br)cc(Br)cc4c3=O)cc2)ccc1O |  | 300 mg/kg |  |  |  |  |  | 300 mg/kg |  |  |  |  |  | 300 mg/kg |  |  |  | 100 mg/kg |  | inactive | MTD at 0.5 h [21]: 100 mg/kg
4 | Cc1nc2c(Br)cc(Br)cc2c(=O)n1-c1ccc(NC(=O)N/N=C/c2ccccc2)cc1 |  | 300 mg/kg | Non-toxic | Non-toxic |  |  |  | 300 mg/kg |  |  |  |  |  |  |  |  |  | 100 mg/kg |  | inactive | 
5 | Cc1nc2c(Br)cc(Br)cc2c(=O)n1-c1ccc(NC(=O)N/N=C/c2ccc(Cl)cc2)cc1 | inactive |  |  |  |  |  |  |  |  |  |  |  |  |  |  |  |  | 300 mg/kg |  | inactive | Activity [23]: inactive
6 | COc1cc(/C=N/NC(=O)Nc2ccc(-n3c(C)nc4c(Br)cc(Br)cc4c3=O)cc2)ccc1O |  | 100 mg/kg | Non-toxic | Non-toxic | 300 mg/kg | 9.5 s | 0% | 100 mg/kg | Non-toxic | 50% | 5.88 s | 12.38 s | 0% |  | 12.25 s | 12.88 s | 25% | 30 mg/kg | 0% |  | 
7 | O=C(N/N=C/c1ccc(O)cc1)Nc1ccc(-n2c(-c3ccccc3)nc3c(Br)cc(Br)cc3c2=O)cc1 |  | 300 mg/kg |  | Non-toxic | 300 mg/kg | 12 s | 0% | 300 mg/kg | Non-toxic | 0% | 12.38 s | 9 s | 50% | 300 mg/kg | 6.5 s | 12.5 s | 0% | 30 mg/kg | 25% |  | 
8 | O=C1NC(=O)C(c2ccccc2)(c2ccccc2)N1 [PHENYTOIN] |  |  |  |  |  | 2.63 s | 25% | 30 mg/kg | Non-toxic | 100% | 0 s | 1.88 s | 75% |  | 1.38 s | 7.13 s | 75% | 30 mg/kg | 75% | inactive | Activity [23]: inactive
9 | Cc1nc2c(Br)cc(Br)cc2c(=O)n1-c1ccc(NC(=O)N/N=C/c2cccc([N+](=O)[O-])c2)cc1 |  | 300 mg/kg | Non-toxic |  |  |  |  | 300 mg/kg |  |  |  |  |  |  |  |  |  | 100 mg/kg |  | inactive | MTD at 0.5 h [21]: 300 mg/kg
10 | O=C(N/N=C/c1cccc([N+](=O)[O-])c1)Nc1ccc(-n2c(-c3ccccc3)nc3c(Br)cc(Br)cc3c2=O)cc1 | inactive |  |  |  | 300 mg/kg |  |  |  |  |  |  |  |  |  |  |  |  |  |  |  | Activity [2]: inactive; Activity [23]: inactive
11 | O=C(N/N=C/c1ccc(Cl)cc1)Nc1ccc(-n2c(-c3ccccc3)nc3c(Br)cc(Br)cc3c2=O)cc1 | inactive |  |  |  |  |  |  |  |  |  |  |  |  |  |  |  |  |  |  | inactive | Activity [2]: inactive; Activity [23]: inactive
12 | Cc1nc2c(Br)cc(Br)cc2c(=O)n1-c1ccc(NC(=O)N/N=C/c2ccc([N+](=O)[O-])cc2)cc1 | inactive |  |  | Non-toxic | 300 mg/kg |  |  |  |  |  |  |  |  | 300 mg/kg |  |  |  | 100 mg/kg |  |  | Activity [23]: inactive
13 | O=C(N/N=C/c1ccc([N+](=O)[O-])cc1)Nc1ccc(-n2c(-c3ccccc3)nc3c(Br)cc(Br)cc3c2=O)cc1 | inactive | 300 mg/kg |  |  |  |  |  |  |  |  |  |  |  |  |  |  |  |  |  | inactive | Activity [2]: inactive
14 | O=C(N/N=C/c1ccccc1)Nc1ccc(-n2c(-c3ccccc3)nc3c(Br)cc(Br)cc3c2=O)cc1 |  | 300 mg/kg |  |  | 300 mg/kg |  |  | 300 mg/kg |  |  |  |  |  | 300 mg/kg |  |  |  | 100 mg/kg |  |  | MTD at 0.5 h [21]: 100 mg/kg
15 | Cc1nc2c(Br)cc(Br)cc2c(=O)n1-c1ccc(NC(=O)N/N=C/c2ccc(O)cc2)cc1 |  | 100 mg/kg | Non-toxic | Non-toxic | 300 mg/kg | 1.25 s | 25% | 30 mg/kg | Non-toxic | 75% | 2.38 s | 0 s | 100% |  | 0 s | 6.63 s | 88% | 30 mg/kg | 100% |  | 
16 | CN(C)c1ccc(/C=N/NC(=O)Nc2ccc(-n3c(-c4ccccc4)nc4c(Br)cc(Br)cc4c3=O)cc2)cc1 |  | 100 mg/kg | Non-toxic | Non-toxic | 300 mg/kg | 7.5 s | 0% | 300 mg/kg | Non-toxic | 13% | 10.75 s | 11.63 s | 0% |  | 11.88 s | 12.75 s | 38% | 100 mg/kg | 0% |  | 

Reference: ChEMBL document CHEMBL2016453, “Design, synthesis and anticonvulsant activities of novel 1-(substituted/unsubstituted benzylidene)-4-(4-(6,8-dibromo-2-(methyl/phenyl)-4-oxoquinazolin-3(4H)-yl)phenyl) semicarbazide derivatives” (Bioorg Med Chem Lett, 2012)
